Experimental findings from paper PMC6270814, “Effects of Ursolic Acid Derivatives on Caco-2 Cells and Their Alleviating Role in Streptozocin-Induced Type 2 Diabetic Rats” (Molecules, 2014) are described below.

The test system of one assay is Caco-2 cells. Kind of assay: MTT cytotoxicity assay on Caco-2 cells. Conditions: Homo sapiens, 24 h, mean ± SD, n = 4, read-out: Inhibition Rate %. Type of assay: cell-based, Human. The procedure: Human intestinal Caco-2 cells (ATCC, Rockville, MD, USA) were incubated at 37 °C in a humidified atmosphere of 5% CO2 in air. The cells were cultured in Dulbecco’s […] medium (DMEM) with 10% heat-inactivated fetal bovine serum, 1% non-essential amino acids, 1% L-glutamine, 1% penicillin/streptomycin (Gibco Life Technologies, Grand Island, NY, USA). The cells were sub-cultured at confluence by 0.05% trypsin-0.5 mM EDTA treatment before they were applied in the experiment.
A MTT test was conducted to determine the possible toxicity of UA and its derivatives to Caco-2 cells. Briefly, cells were seeded at a density of 1 × 10^4 cells/mL in a 96-well plate and incubated for 24 h. The next day, cells were incubated with vehicle (0.1% DMSO) and compounds at 100, 50, 25, 12.5 μmol/L for 24 h, and then 5 g/L MTT solution (20 μL) was added for 4 h. Absorbance at 570 nm was measured using a Multimodel Plate Reader (Infinite 200, Tecan, Mannedorf, Switzerland).

Assay [1] has as its system STZ-induced diabetic rats. Kind of assay: Fasting blood glucose in STZ-induced diabetic rats, 4 weeks treatment. Type of assay: in vivo, rat. On the procedure:
Adult male albino rats of Sprague-Dawley rats (180–220 g) were obtained from the Guangdong Medical Lab Animal Center, and maintained under standard laboratory conditions in a temperature (25–30 °C) and light-controlled (12-h light/dark cycle) room with 35%–60% humidity. The animals were acclimatized for 10 days before the experiments and provided with rodent chow and water ad libitum. The investigation was conducted in accordance with the Guide for the Care and Use of Laboratory Animals and approved by the institutional Animal Ethics Committee.
Diabetes was induced by a single intraperitoneal injection of streptozotocin (Sigma-Aldrich, St. Louis, MO, USA) at a dose of 65 mg/kg body weight. STZ was dissolved in 0.1 M cold citrate buffer, pH 4.5. Control group were injected with citrate buffer alone. After 7 days for the development of diabetes, plasma glucose levels were determined of each rat. Rats with fasting blood glucose (FBG) range of above 16.7 mmol/L were considered as DM rats and were used for further study.
According to the body weight and plasma glucose levels the rats were divided randomly into seven groups with six rats each and treated as follows: • Group I: Normal rats treated with 0.5% CMC-Na (2 mL/200 g body weight). • Group II: Diabetic rats treated with 0.5% CMC-Na. • Group III: Diabetic rats treated with 10 mg/kg of glibenclamide. • Group IV: Diabetic rats treated with 100 mg/kg of compound 1 (UA). • Group V: Diabetic rats treated with 100 mg/kg of compound 10. • Group VI: Diabetic rats treated with 100 mg/kg of compound 11. • Group VII: Diabetic rats treated with 100 mg/kg of compound 12.
The treatment was continued daily for 28 days. Blood glucose levels and body weight were measured every week to ascertain the status of diabetes. After 4 weeks of treatment, the animals were fasted for 12 h and sacrificed by cervical dislocation under mild anaesthetization, blood was collected into heparinized tubes and centrifuged at 2,000 rpm for 10 min. Livers and kidneys were removed, washed and homogenized in ice-cold normal saline. This homogenates were centrifuged at 3,000 rpm for 10 min at 4 °C, and the supernatants were collected for the estimate of antioxidant markers.
Fasting blood glucose levels were estimated on days 0, 7, 14, 28 with the single touch glucometer (Life Scan, Johnson & Johnson Company, New Brunswick, NJ, USA). Serum insulin level was measured by use of a commercial immunoassay kit by enzyme linked immunosorbent assay (Uscn. Life Science Inc., Wuhan, China). Serum total protein, albumin, triglycerides (TG), total cholesterol (TC), high-density lipoprotein cholesterol (HDL-C), and low-density lipoprotein cholesterol (LDL-C) were measured with an automatic biochemical analyzer (Sinnowa D240, Nanjing, China).

The subject of the next assay is SGLT-1. The assay can be described thus: Western blot of SGLT-1 protein expression in Caco-2 cells. Type of assay: cell-based, Human. Conditions: 100 μM, 6 h. On the procedure:
Caco-2 cells were cultured on 6-well plates at a density of 1 × 10^6 cells/well for 13 days. The cells were placed in serum-free medium for 24 h prior to the treatment. Then UA and its derivatives (100 μM) were added, after 6 h incubation, the cells were immediately washed three times with ice-cold PBS and lysed in 200 μL lysis buffer. Cells were allowed to lyse on ice, and then scraped, vortexed, sonicated and stored at −80 °C for further analysis. Protein concentrations were determined as described and cell lysate was subjected to western blot analysis. Briefly, proteins with same amount were denatured in sample buffer, separated on 8% SDS-PAGE gel, and transferred onto a polyvinylidene diflouride membrane. […] Membranes were then incubated overnight at 4 °C in blocking buffer with antibodies for GLUT-2, SGLT-1 and β-actin (EMD, Millipore, Billerica, MA, USA). Membranes were washed with TBST and incubated 1 h with appropriate secondary antibodies. Revelation was performed by using the enhanced chemiluminescence reagent and blue-light sensitive film. Densitometric analysis of films was performed with a Hewlett-Packard scanner equipped with a transparent adaptor and UN-SCAN-IT software.

What is called inhibition is the change of the read-out against control, counted positive when it falls. Turning to `CCC(=O)O[C@H]1CC[C@@]2(C)C(CC[C@]3(C)C2CC=C2C4[C@@H](C)[C@H](C)CC[C@]4(C(=O)O)CC[C@]23C)C1(C)C` (some centres unmarked) [Compound 10], the inhibition at 100 µM in the assay with Caco-2 cells turned out to be 7.84 ± 4.15%. In addition, the “Fasting Blood Glucose Level, Week 0” value in assay [1] (STZ diabetic rats, Week 0 (before treatment), compounds 100 mg/kg, glibenclamide 10 mg/kg, n = 6) is 320.40 ± 12.96 mg/dL. The “Fasting Blood Glucose Level, Week 1” value in assay [1] (STZ diabetic rats, Week 1, compounds 100 mg/kg, glibenclamide 10 mg/kg daily, n = 6) was 270.00 ± 16.74 mg/dL. The “Fasting Blood Glucose Level, Week 2” value in assay [1] (STZ diabetic rats, Week 2, compounds 100 mg/kg, glibenclamide 10 mg/kg daily, n = 6) is 286.20 ± 18.90 mg/dL. In addition, the “Fasting Blood Glucose Level, Week 3” value in assay [1] (STZ diabetic rats, Week 3, compounds 100 mg/kg, glibenclamide 10 mg/kg daily, n = 6) is recorded as 234.00 ± 14.58 mg/dL. Moreover, the “Fasting Blood Glucose Level, Week 4” value in assay [1] (STZ diabetic rats, Week 4, compounds 100 mg/kg, glibenclamide 10 mg/kg daily, n = 6) came out at 225.00 ± 11.70 mg/dL. The “decrease in blood glucose levels as compared with diabetic control” value in assay [1] (end of the 4 week treatment, compound 10 100 mg/kg, glibenclamide 10 mg/kg) is 49.6%. Further, in the assay on SGLT-1, the “effect on protein expression of SGLT-1” value is given as “significantly reduce”.
